Read-outs that look alike come from different tables or passages of the source.
Assays:
[1] = system: rhesus monkeys; conditions: previously published in Rowlett et al., 2006; cited from earlier work
[2] = Clinical study of eszopiclone in healthy volunteers: plasma concentration-time profiles after oral administration; format: in vivo, human; conditions: post-dose
Description: FIG. 1 is a plot of mean (S)-zopiclone plasma concentration-time profiles following oral administration of (S)-zopiclone.
A clinical study of eszopiclone in healthy volunteers was performed using art-recognized methodology.

[3] = molecular target: T1, α1-containing GABAA receptors (human α1, β3, γ2L) (Homo sapiens, UniProt P14867+P18507); assay: Potentiation of GABA evoked currents, recombinant GABA-A receptors in Xenopus oocytes, two-electrode voltage clamp; format: cell-based
T1 construct: expressed in transfected cells; host or cells: Xenopus oocytes (cDNA injected, alpha:beta:gamma 1:1:3)
Description: (§1) FIG. 2 is a plot showing the concentration-dependent potentiation of GABA evoked currents by (S)-zopiclone. For all experiments, human cDNA encoding each subunit was injected in oocytes in a stoichiometry of 1:1:3 (alpha, beta, gamma subunits). Approximately 24 hours later, GABA evoked currents (using a concentration of GABA equal to the EC10) were recorded from oocytes using a two-electrode voltage clamp on a robotic oocyte platform and a constant voltage of −80 mV. GABA was applied to the oocytes via a perfusion system for 20 seconds and then removed. An inward deflection of the current trace was recorded and subsequently compared to the responses resulting from applying the same concentration of GABA plus varying concentrations of the test compound ((S)-zopiclone). A doubling of the GABA evoked current is represented as a potentiation ratio of 1.0.
(§2) The GABA-A receptor is gated by GABA, and ligands at the benzodiazepine site potentiate GABA-evoked currents. It is well-established in the scientific literature that classical benzodiazepines potentiate GABA evoked chloride currents through GABA-A receptors. The efficacies of classical benzodiazepines can be described as “full modulators” referring to their ability to increase the chloride currents induced by sub-maximal GABA concentrations. The action of (S)-zopiclone on GABA-A receptors was evaluated by examining their effects on electrophysiological recordings in a recombinant expression system.
(§3) Recombinant GABA-A receptors were expressed in Xenopus oocytes by injecting cDNA encoding the human β3, γ2L, and each of α1, α2, α3, or α5 subunits in turn to assemble functional channels. Channel activity was measured using two-electrode voltage clamp in whole cell configuration on a robotic workstation. […] The potentiation ratio was then measured as the fold-increase in current generated by a (S)-zopiclone plus an EC10 of GABA, compared to the current generated by just the EC10 of GABA alone. These potentiation ratios were measured at a range of (S)-zopiclone concentrations to generate a subsequent concentration response curve at each of the subtypes using between 2 and 7 oocytes. […]
(§4) For all experiments, human cDNA encoding each subunit was injected in oocytes in a stoichiometry of 1:1:3 (alpha, beta, gamma subunits). Approximately 24 hours later, GABA evoked currents (using a concentration of GABA equal to the EC10) were recorded from oocytes using a two-electrode voltage clamp on a robotic oocyte platform and a constant voltage of −80 mV. […] An inward deflection of the current trace was recorded and subsequently compared to the responses resulting from applying the same concentration of GABA plus varying concentrations of the test compound [(S)-zopiclone]. […]

[4] = molecular target: T2, α2-containing GABAA receptors (human α2, β3, γ2L) (Homo sapiens, UniProt P18507+P47869); assay: as above; format: cell-based
T2 construct: expressed in transfected cells; host or cells: Xenopus oocytes (cDNA injected, alpha:beta:gamma 1:1:3)
Description: as §1, §2, §3, §4

[5] = molecular target: T3, α3-containing GABAA receptors (human α3, β3, γ2L) (Homo sapiens, UniProt P18507+P34903); assay: as above; format: cell-based
T3 construct: expressed in transfected cells; host or cells: Xenopus oocytes (cDNA injected, alpha:beta:gamma 1:1:3)
Description: as §1, §2, §3, §4

[6] = molecular target: T4, α5-containing GABAA receptors (human α5, β3, γ2L) (Homo sapiens, UniProt P18507+P31644); assay: as above; format: cell-based
T4 construct: expressed in transfected cells; host or cells: Xenopus oocytes (cDNA injected, alpha:beta:gamma 1:1:3)
Description: as §1, §2, §3, §4

[7] = system: rhesus monkeys; assay: Rhesus monkey conflict procedure (suppressed and non-suppressed responding); format: in vivo; conditions: for ED50: Macaca mulatta, iv, rhesus monkeys; for Estimated anxiolytic dose / expected human oral dose: minimum recommended dose of diazepam 2 mg
Description: FIG. 3 is a plot of rates of non-suppressed and suppressed responding by rhesus monkeys trained in a conflict procedure. Monkeys were injected i.v. with cumulative doses of (S)-zopiclone. Data are mean±S.E.M. for N=4 monkeys. Points above “V” represent data following drug vehicle administration. Note that *P<0.05 vs. V (control). Experimental methodology was identical to that described by Rowlett J K et al. (2006).
“Conflict Procedure,” as used herein refers to the rhesus monkey conflict procedure reported by Rowlett et al. (Psychopharmacology (2006) 184:201-211). Antianxiety dosage determination in rhesus monkeys using the procedure set forth by Rowlett et al. is correlative with antianxiety dosages in humans. The conflict procedure is a method of determining the parameters correlating a clinically determinable effect of eszopiclone in rhesus monkeys with analogous effects in a human subject. The results of conflict procedures in rhesus monkeys are closely correlated with dosages of agents providing anxiolysis in humans. Accordingly, the conflict procedure is a method of determining whether a dosage of eszopiclone provides clinically determinable treatment or prophylaxis of anxiety in humans.
Conflict procedures in animals are used to study mechanisms underlying the anxiolytic effects of benzodiazepines (Rowlett J K et al., Psychopharmacology (2006) 184:201-211). […] The effects of each benzodiazepine in rhesus conflict procedure is to increase suppressed responding at doses lower than the doses that ultimately decrease rates of non-suppressed responding. This characteristic profile in the rhesus conflict procedure contrasts dramatically with the effects of non-benzodiazepine hypnotics zolpidem and zaleplon, and also contrasts to the effects of GABA-A ligands with subtype efficacies different from classical benzodiazepines, such as flumazenil and CL218,872 (Rowlett J K et al., 2006).
This correlation was used to estimate the therapeutic dose in humans for anxiolytic effects. The ED50 of the suppressed responding in FIG. 3 is 0.07 mg/kg i.v., indicating a 50% anxiolytic effect at that dose i.v. in the rhesus procedure. Using this ED50 in the regression analysis of Rowlett J K et al. (2006), an expected human oral dose of 0.9 mg is obtained. This dose is below the hypnotic doses (i.e., it is subsedative) used clinically in humans (1, 2, and 3 mg), further supporting the validity of the correspondence between the efficacy profiles of classical benzodiazepines and (S)-zopiclone.
The potencies of eszopiclone to alter suppressed and non-suppressed responding were estimated by calculating the dose that engendered 5% to 95% of the maximum effect (EDx, where x=5-95%). The EDx for suppressed responding was obtained by dividing rates of suppressed responding for individual monkeys by the average maximum increase in response rate (i.e., the peak effect) and multiplying the value by 100. Doses on the ascending limb of the dose-response function were used to calculate the EDx by log-linear regression analysis. The EDx for non-suppressed responding was obtained by dividing rates of non-suppressed responding for individual monkeys by the average maximum decrease in response rate (this corresponded to the highest dose tested) and multiplying by 100. The EDx values for non-suppressed responding were calculated by log-linear regression analysis. All potencies were expressed as the mean±SEM for n=4 monkeys.
A linear relationship between relative potency to induce clinical effects in humans and relative potency to increase suppressed responding or decrease non-suppressed responding in monkeys has been determined previously for 10 standard benzodiazepines (Rowlett et al., 2006). […]

[8] = system: healthy adult male human subjects; assay: EEG study (quantitative wake EEG) of single doses of eszopiclone versus placebo; format: in vivo
Description: A study was conducted to evaluate the pharmacodynamic (quantitative wake electroencephalogram (qEEG) and auditory P300 (evoked potentials (EPs)) of four doses of eszopiclone, relative to placebo, in healthy adult male human subjects. The study was single-blind, placebo-controlled, ascending, single dose. Subjects received single doses of immediate release formulations that contained 0.3 mg of eszopiclone, 0.6 mg of eszopiclone, 0.9 mg of eszopiclone or 2.0 mg of eszopiclone.
Changes in beta EEG activity are interpreted as indicating an anxiolytic effect (Ansseau et al, Neuropsychobiology 1984, 12(4):255-9; Buchsbaum et al, Biol. Psychiatry, 1985, 20(8):832-42; Macher et al, Human psychopharmacology, 1990 (eds I Hindmarch and P D Stonier), Vol 3, 10-2; Mandema and Danhof, Clin Pharmacokinet, 1992, 23(3):191-215.
In this study, statistical EEG maps were obtained comparing EEG power values for each dose of eszopiclone versus placebo. […] The dose effect is further illustrated in the graphically depicted results of FIG. 4 which follows.
Classically, delta activity in pharmaco-EEG indicates a sedative effect of the drug under study. Delta EEG activity is clearly modified when the sedative drug effect has reached a high threshold.
Conclusions regarding a possible sedative effect or a trend to impair the subject's arousal should also include analyses of a drug's effects on alpha EEG activity, which reflect decreases in subject's arousal (pro sedative effect).

[9] = log10 of predicted potency relative to diazepam in humans
[10] = predicted potency relative to diazepam in humans
[11] = relative potency in the monkey conflict procedure

T4 sequence (P31644 32-462): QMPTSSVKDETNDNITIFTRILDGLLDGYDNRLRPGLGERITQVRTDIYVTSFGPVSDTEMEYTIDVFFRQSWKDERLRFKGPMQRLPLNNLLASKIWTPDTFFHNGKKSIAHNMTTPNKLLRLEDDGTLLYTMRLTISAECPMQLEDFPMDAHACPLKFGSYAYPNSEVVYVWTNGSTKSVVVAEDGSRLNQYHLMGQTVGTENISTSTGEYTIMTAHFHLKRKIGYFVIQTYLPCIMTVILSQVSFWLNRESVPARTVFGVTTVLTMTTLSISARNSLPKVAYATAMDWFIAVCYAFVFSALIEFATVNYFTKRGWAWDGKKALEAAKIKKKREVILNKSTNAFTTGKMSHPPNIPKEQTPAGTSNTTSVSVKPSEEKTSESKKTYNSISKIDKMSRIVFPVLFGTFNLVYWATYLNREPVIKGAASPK
T4 sequence (P28472 26-473 partner): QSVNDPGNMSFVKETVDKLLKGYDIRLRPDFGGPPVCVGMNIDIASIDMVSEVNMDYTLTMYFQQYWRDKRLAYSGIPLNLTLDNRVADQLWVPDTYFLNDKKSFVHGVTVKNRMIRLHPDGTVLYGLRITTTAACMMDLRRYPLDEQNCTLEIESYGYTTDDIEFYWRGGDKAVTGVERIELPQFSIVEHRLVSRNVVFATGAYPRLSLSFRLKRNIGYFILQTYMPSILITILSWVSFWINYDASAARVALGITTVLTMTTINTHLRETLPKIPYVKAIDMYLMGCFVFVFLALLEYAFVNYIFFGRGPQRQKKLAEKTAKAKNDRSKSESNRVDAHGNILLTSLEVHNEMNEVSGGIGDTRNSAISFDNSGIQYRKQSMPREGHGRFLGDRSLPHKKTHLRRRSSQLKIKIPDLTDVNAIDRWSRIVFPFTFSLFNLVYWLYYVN
T4 sequence (P18507 40-475): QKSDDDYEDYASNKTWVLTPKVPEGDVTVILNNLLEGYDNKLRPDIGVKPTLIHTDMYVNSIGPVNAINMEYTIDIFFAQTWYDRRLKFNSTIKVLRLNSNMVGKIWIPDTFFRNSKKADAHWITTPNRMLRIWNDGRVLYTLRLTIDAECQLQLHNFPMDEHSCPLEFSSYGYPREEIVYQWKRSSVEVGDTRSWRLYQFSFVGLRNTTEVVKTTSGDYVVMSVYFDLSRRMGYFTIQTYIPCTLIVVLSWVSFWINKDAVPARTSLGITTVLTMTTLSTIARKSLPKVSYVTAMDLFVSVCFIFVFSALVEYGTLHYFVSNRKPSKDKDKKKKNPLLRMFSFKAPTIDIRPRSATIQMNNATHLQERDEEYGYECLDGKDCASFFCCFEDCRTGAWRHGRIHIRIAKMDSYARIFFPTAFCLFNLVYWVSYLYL
T3 sequence (P34903 29-492): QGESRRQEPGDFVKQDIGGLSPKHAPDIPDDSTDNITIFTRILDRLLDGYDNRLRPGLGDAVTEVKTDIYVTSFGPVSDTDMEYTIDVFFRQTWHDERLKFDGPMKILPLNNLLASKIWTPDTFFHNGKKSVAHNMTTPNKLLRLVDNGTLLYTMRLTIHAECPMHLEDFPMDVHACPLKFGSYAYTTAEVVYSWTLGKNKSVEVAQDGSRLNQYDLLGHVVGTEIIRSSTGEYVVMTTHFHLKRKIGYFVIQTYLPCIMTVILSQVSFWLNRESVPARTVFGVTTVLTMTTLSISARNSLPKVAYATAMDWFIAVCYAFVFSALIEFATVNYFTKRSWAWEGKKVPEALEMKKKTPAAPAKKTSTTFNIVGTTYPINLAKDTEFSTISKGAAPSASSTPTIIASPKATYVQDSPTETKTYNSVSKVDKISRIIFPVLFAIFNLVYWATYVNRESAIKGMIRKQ
T3 sequence (P28472 26-473 partner): as the sequence (P28472 26-473 partner) above
T3 sequence (P18507 40-475): as the sequence (P18507 40-475) above
T1 sequence (P14867 28-456): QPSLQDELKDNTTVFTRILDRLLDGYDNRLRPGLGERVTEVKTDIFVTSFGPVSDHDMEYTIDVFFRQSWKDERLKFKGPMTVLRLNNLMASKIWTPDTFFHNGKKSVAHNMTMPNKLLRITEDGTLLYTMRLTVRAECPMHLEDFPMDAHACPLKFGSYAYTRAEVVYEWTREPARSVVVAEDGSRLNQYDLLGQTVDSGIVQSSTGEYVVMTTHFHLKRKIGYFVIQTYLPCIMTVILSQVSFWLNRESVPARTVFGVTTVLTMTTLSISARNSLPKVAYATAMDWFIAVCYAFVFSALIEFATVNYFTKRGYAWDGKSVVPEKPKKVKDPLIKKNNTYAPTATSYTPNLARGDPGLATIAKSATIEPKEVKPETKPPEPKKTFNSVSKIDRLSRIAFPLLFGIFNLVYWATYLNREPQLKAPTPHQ
T1 sequence (P28472 26-473 partner): as the sequence (P28472 26-473 partner) above
T1 sequence (P18507 40-475): as the sequence (P18507 40-475) above
T2 sequence (P47869 29-451): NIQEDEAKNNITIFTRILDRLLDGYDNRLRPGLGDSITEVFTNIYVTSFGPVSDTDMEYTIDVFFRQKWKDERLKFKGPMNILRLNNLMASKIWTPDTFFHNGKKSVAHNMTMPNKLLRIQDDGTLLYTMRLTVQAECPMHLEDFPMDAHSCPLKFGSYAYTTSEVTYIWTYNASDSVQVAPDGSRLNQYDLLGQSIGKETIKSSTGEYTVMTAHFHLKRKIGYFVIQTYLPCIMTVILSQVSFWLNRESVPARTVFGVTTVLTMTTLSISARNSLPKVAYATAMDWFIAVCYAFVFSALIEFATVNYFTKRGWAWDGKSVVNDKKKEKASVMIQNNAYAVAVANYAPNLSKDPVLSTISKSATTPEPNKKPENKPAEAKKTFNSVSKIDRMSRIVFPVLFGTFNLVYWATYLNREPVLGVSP
T2 sequence (P28472 26-473 partner): as the sequence (P28472 26-473 partner) above
T2 sequence (P18507 40-475): as the sequence (P18507 40-475) above

Structure (SMILES): CN1C(=O)CN=C(c2ccccc2)c2cc(Cl)ccc21 [Diazepam, diazepam]
- ED50, non-suppressed responding [1]: 1.65 mg/kg
- ED50, suppressed responding [1]: 0.11 mg/kg

Structure (SMILES): CN1CCN(C(=O)O[C@H]2c3nccnc3C(=O)N2c2ccc(Cl)cn2)CC1 [Eszopiclone, (+)-(5S)-6-(chloropyridin-2-yl)-7-oxo-6,7-dihydro-5H-pyrrolo[3,4-b]pyrazin-5-yl 4-methyl-piperazine-1-carboxylate]
- time of maximum mean (S)-zopiclone plasma concentrations ([2]; fasted conditions): 0.5 to 1.5 h
- time of maximum mean (S)-zopiclone plasma concentrations ([2]; fed conditions): 2 to 3 h
- EC50 [3]: 0.03 µM
- EC50 [4]: 0.1 µM
- EC50 [5]: 0.25 µM
- EC50 [6]: 0.04 µM
- ED50 ([7]; read-out: ED50, non-suppressed responding): 0.74 mg/kg
- ED50 ([7]; read-out: ED50, suppressed responding): 0.07 mg/kg
- Estimated anxiolytic dose / expected human oral dose ([7]; human, regression of Rowlett et al. (2006), listed as (S)-zopiclone): 0.9 mg
- Estimated anxiolytic dose / expected human oral dose ([7]; human, regression of Rowlett et al. (2006), listed as eszopiclone): Estimated anxiolytic dose for eszopiclone = 0.9 mg
- Estimated sedative dose ([7]; human, regression of Rowlett et al. (2006), maximum recommended dose of diazepam 10 mg): Estimated sedative dose for eszopiclone = 3.4 mg
- Y = 0.583x − 0.175, Y (eszopiclone relative potency), non-suppressed responding [7, 9]: −0.47
- Y = 0.672x − 0.174, Y (eszopiclone relative potency), suppressed responding [7, 9]: −0.34
- 10^Y, non-suppressed responding [7, 10]: 0.34
- 10^Y, suppressed responding [7, 10]: 0.46
- Ratio (eszopiclone ED50 / diazepam ED50), non-suppressed responding [7, 11]: 0.31
- Ratio (eszopiclone ED50 / diazepam ED50), suppressed responding [7, 11]: 0.64
- Log10(Ratio), non-suppressed responding ([7]; rhesus monkey, in vivo): −0.51
- Log10(Ratio), suppressed responding ([7]; rhesus monkey, in vivo): −0.19
- ED5 to increase rates of suppressed responding (mean) ([7]; x = 5 % maximum increase, N = 4 monkeys): 0.029 mg/kg, i.v.
- ED10 to increase rates of suppressed responding (mean) ([7]; x = 10 % maximum increase, N = 4 monkeys): 0.032 mg/kg, i.v.
- ED15 to increase rates of suppressed responding (mean) ([7]; x = 15 % maximum increase, N = 4 monkeys): 0.036 mg/kg, i.v.
- ED20 to increase rates of suppressed responding (mean) ([7]; x = 20 % maximum increase, N = 4 monkeys): 0.040 mg/kg, i.v.
- ED25 to increase rates of suppressed responding (mean) ([7]; x = 25 % maximum increase, N = 4 monkeys): 0.044 mg/kg, i.v.
- ED30 to increase rates of suppressed responding (mean) ([7]; x = 30 % maximum increase, N = 4 monkeys): 0.048 mg/kg, i.v.
- ED35 to increase rates of suppressed responding (mean) ([7]; x = 35 % maximum increase, N = 4 monkeys): 0.054 mg/kg, i.v.
- ED40 to increase rates of suppressed responding (mean) ([7]; x = 40 % maximum increase, N = 4 monkeys): 0.059 mg/kg, i.v.
- ED45 to increase rates of suppressed responding (mean) ([7]; x = 45 % maximum increase, N = 4 monkeys): 0.066 mg/kg, i.v.
- ED50 to increase rates of suppressed responding (mean) ([7]; x = 50 % maximum increase, N = 4 monkeys): 0.073 mg/kg, i.v.
- ED55 to increase rates of suppressed responding (mean) ([7]; x = 55 % maximum increase, N = 4 monkeys): 0.081 mg/kg, i.v.
- ED60 to increase rates of suppressed responding (mean) ([7]; x = 60 % maximum increase, N = 4 monkeys): 0.090 mg/kg, i.v.
- ED65 to increase rates of suppressed responding (mean) ([7]; x = 65 % maximum increase, N = 4 monkeys): 0.100 mg/kg, i.v.
- ED70 to increase rates of suppressed responding (mean) ([7]; x = 70 % maximum increase, N = 4 monkeys): 0.110 mg/kg, i.v.
- ED75 to increase rates of suppressed responding (mean) ([7]; x = 75 % maximum increase, N = 4 monkeys): 0.123 mg/kg, i.v.
- ED80 to increase rates of suppressed responding (mean) ([7]; x = 80 % maximum increase, N = 4 monkeys): 0.136 mg/kg, i.v.
- ED85 to increase rates of suppressed responding (mean) ([7]; x = 85 % maximum increase, N = 4 monkeys): 0.151 mg/kg, i.v.
- ED90 to increase rates of suppressed responding (mean) ([7]; x = 90 % maximum increase, N = 4 monkeys): 0.168 mg/kg, i.v.
- ED95 to increase rates of suppressed responding (mean) ([7]; x = 95 % maximum increase, N = 4 monkeys): 0.186 mg/kg, i.v.
- Alpha EEG activity (arousal), change from placebo ([8]; doses below 2.0 mg): did not exhibit major effects on arousal
- Alpha EEG activity (arousal), change from placebo ([8]; highest dose (2.0 mg)): induces a significant impairment in the subject's arousal and possibly a sedative effect
- Delta EEG activity (sedative effect), change from placebo ([8]; highest dose (2.0 mg)): induces a significant sedative effect
- Delta EEG activity (sedative effect), change from placebo ([8]; other doses (0.3, 0.6, 0.9 mg)): do not have this side effect
